The text below walks through data of article PMC8286836, “Identifying SARS-CoV-2 antiviral compounds by screening for small molecule inhibitors of Nsp5 main protease” (Biochemical Journal, 2021).

Where “and” joins values, the source holds several entries; their conditions need not be identical. Equal values may be shown once. Entries after “also recorded” stand apart in the source; their conditions may differ. Read-outs that look alike come from different tables or passages of the source. Where a SMILES comes first, the peptide text is derived from it. [ ]: non-standard residue; d: D form. The star is where a group is joined. Nle = CCCC[C@H](N)C(=O)O; Cbz = O=C(OCc1ccccc1)*; CH2F = FC*

The target in data set [1] is T1, nsp5 (Severe acute respiratory syndrome coronavirus 2, UniProt P0DTD1). Put plainly: biochemical. In kind it is biochemical. The note with it: for inhibition of nsp5 in FRET-based assay: drug concentrations 0 to 500 µM; for inhibition of nsp5 in presence of reducing agent: DTT or GSH; for inhibition of nsp5 in absence of reducing agent: no reducing agent.
Data set [2] addresses T1, nsp5. Put plainly: Gel based nsp9 cleavage assay. The format is biochemical. The settings on record: 1 µM nsp5, drug 10-500 µM.
The subject of another data set is SARS-CoV-2. Put plainly: viral infectivity assay in Vero E6 cells. In kind it is cell-based. The settings on record: for EC50: read-out: EC50 viral infection.
A further data set relates to mice. The settings on record: cited from earlier work.
Another data set concerns the target thrombin (Homo sapiens, UniProt P00734). The data set is described as follows: thrombin FRET protease assay (specificity). The format is biochemical. The settings on record: for inhibition of thrombin activity (words): same buffer as in the HTS. The text has this:
Calpain Inhibitor I and Z-DEVD-FMK were described recently as nsp5 inhibitors in vitro [21, 25]. To test the specificity of the final five drugs we tested them against a different protease, thrombin. We used the same buffer as in the HTS, which contained a non-ionic detergent, which reduces the likelihood of unspecific inhibition via colloidal aggregation. […] Lastly, we tested whether these compounds could inhibit the other viral coronavirus protease (nsp3 PLpro), which is also a cysteine protease. The substrate and assay conditions used in this experiment as well as example inhibitor compounds of PLpro are described elsewhere (see [28]).
The peptides were analysed by LC–MS on an Agilent 1100 LC-MSD.

The next data set concerns rhesus macaques. Details: method as in PMID 29553486. The settings on record: trials investigating AIDS disease progression; cited from earlier work.
Setting [3] is: FRET-based assay, 10 nM nsp5, 20 µM substrate, 2 mM DTT, mean ± SEM, read-out: IC50.
Where [4] appears, read: Severe acute respiratory syndrome coronavirus 2, Vero C1008, Vero E6 cells, MOI 0.5 PFU/cell, mean ± SEM.

By IC50 is commonly meant the concentration that gives 50% inhibition. On to PDK1/Akt/Flt Dual Pathway Inhibitor, for which, on nsp5 [1] (setting [3]), the IC50 is 26.3 µM. Also, the “Hill coefficient (nH)” value on nsp5 [1] (FRET-based assay, mean ± SEM) is reported as -0.3 ± 0.02. The “inhibition of nsp5 in FRET-based assay” value against nsp5 [1] is reported as “showed some inhibition of nsp5”. The “inhibition of nsp5 in nsp9 gel-based cleavage assay (words)” value (“inhibition of nsp5 … (words)” below) on nsp5 [2] is “Did not inhibit”; at nsp5 [2] (listed as PDK1/Akt/Flt Dual pathway), “did not show inhibition at any of the drug concentrations”.

Regarding `Br.CCCc1cc(-c2nc(-c3ccc(C)cc3)cs2)ccn1` [Fatostatin HBr], the IC50 on nsp5 [1] (setting [3]) came to 64.9 µM. The “Hill coefficient (nH)” value on nsp5 [1] (FRET-based assay, mean ± SEM) is recorded as -0.3 ± 0.08. At nsp5 [1], the “inhibition of nsp5 in FRET-based assay” value is given as “showed some inhibition of nsp5”. The “inhibition of nsp5 … (words)” value against nsp5 [2] is “Did not inhibit; also recorded: did not show inhibition at any of the drug concentrations”.

`Cc1ccccc1N=Nc1ccc(NC(=O)c2ccnn2C)c(C)c1` [CH-223191]: the “inhibition of nsp5 in FRET-based assay” value on nsp5 [1] is given as “Did not inhibit”.

With `CCOc1ccc(Cc2cc([C@@H]3O[C@H](SC)[C@@H](O)[C@H](O)[C@H]3O)ccc2Cl)cc1` [Sotagliflozin (LX4211), Sotagliflozin], on nsp5 [1], the “inhibition of nsp5 in FRET-based assay” value is given as “Did not inhibit”.

As for `CCC(C)C(NC(=O)OCc1ccccc1)C(=O)NC(CCC(=O)OC)C(=O)NC(C(=O)NC(CC(=O)OC)C(=O)CF)C(C)O` (stereo not shown) [Z-IETD-FMK] (Cbz-IE(OMe)TD(OMe)-CH2F; configuration not given here), on nsp5 [1] (setting [3]), the half-inhibitory concentration (IC50) was 0.23 ± 0.01 µM. Besides, the “Hill coefficient (nH)” value at nsp5 [1] (FRET-based assay, mean ± SEM) is -1.4 ± 0.08. For the same molecule, the “inhibition of nsp5 … (words)” value at nsp5 [2] is recorded as “inhibited nsp5”.

`CN1CCN(c2c(F)cc3c(=O)c(C(=O)O)cn4c3c2OCN4C)CC1` [Marbofloxacin]: the “inhibition of nsp5 in FRET-based assay” value on nsp5 [1] is recorded as “Did not inhibit”.

The term EC50 denotes the concentration giving half of the maximal effect. Molecule `COC(=O)CC(NC(=O)C(C)NC(=O)C(NC(=O)OCc1ccccc1)C(C)C)C(=O)CF` (stereo not drawn) [Z-VAD-FMK, Z-VAD(OMe)-FMK] (Cbz-Val-Ala-Asp(OMe)-CH2F; configuration not given here) displayed an IC50 against nsp5 [1] of 0.16 ± 0.01 µM. The “Hill coefficient (nH)” value at nsp5 [1] (FRET-based assay, mean ± SEM) was -1.5 ± 0.07. Besides, the “inhibition of nsp5 … (words)” value against nsp5 [2] is “inhibited nsp5”. For the same molecule, the EC50 with SARS-CoV-2 (setting [4]) worked out at 138 ± 19 µM. Moreover, the “concentrations at which inhibition of viral infection was displayed” value with SARS-CoV-2 (Vero E6 cells) was “greater than 100 µM”.

As for `COC(=O)CC(NC(=O)C(CC(C)C)NC(=O)C(NC(=O)C(C)NC(=O)OCc1ccccc1)C(C)C)C(=O)CF` (stereo not shown) [Z-AVLD-FMK] (Cbz-AVLD(OMe)-CH2F; configuration not given here), the 50% inhibitory concentration (IC50) at nsp5 [1] (FRET-based assay, custom FMK peptides, mean ± SEM, read-out: IC50) was < 0.001 µM and 0.0008 µM. The EC50 in the data set with SARS-CoV-2 (Severe acute respiratory syndrome coronavirus 2, Vero C1008) was determined as 66 ± 7.28 µM; in the data set on SARS-CoV-2, 66 ± 7.3 µM. The “increase in inhibitor potency (EC50) compared with Z-VAD-FMK” value with SARS-CoV-2 (Vero E6 cells) turned out to be 2 fold.

As to `COc1cc2ncc(-c3ccccc3)nc2cc1OC` [Tyrphostin AG 1296], the “inhibition of nsp5 in FRET-based assay” value on nsp5 [1] was “did not inhibit in either validation step”. Moreover, the “inhibition of nsp5 … (words)” value against nsp5 [2] was “did not inhibit in either validation step”.

On to `COC(=O)CC(NC(=O)C(CC(C)C)NC(=O)C(NC(=O)C(C)NC(=O)C(CO)NC(=O)OCc1ccccc1)C(C)C)C(=O)CF` (stereo not shown) [Z-SAVLD-FMK] (Cbz-SAVLD(OMe)-CH2F; configuration not given here), for which the IC50 at nsp5 [1] (setting [3]) was determined as 0.02 ± 0.001 µM.

As for `O=c1c2ccccc2[se]n1-c1ccccc1` [Ebselen], at nsp5 [1] (FRET-based assay), the “inhibition of nsp5 in presence of reducing agent” value is given as “only a slight reduction in nsp5 activity” and the “inhibition of nsp5 in absence of reducing agent” value is reported as “inhibited nsp5 only in the absence of a reducing agent”.

Regarding `CCCC[C@@H](C=O)NC(=O)[C@H](CC(C)C)NC(=O)[C@H](CC(C)C)NC(C)=O` [Calpain Inhibitor I, (2S)-2-(acetylamino)-N-[(1S)-1-({[(1S)-1-formylpentyl]amino}carbonyl)-3-methylbutyl]-4-methylpentanamide] (Ac-Leu-Leu-[Nle]-aldehyde), the IC50 came to 5.17 ± 0.17 µM at nsp5 [1] (setting [3]); 2.8 ± 0.2 µM on nsp5 [1] (FRET-based assay, Reducing agent: DTT, read-out: IC50); 2.3 ± 0.2 µM on nsp5 [1] (FRET-based assay, Reducing agent: GSH, read-out: IC50); 2.4 ± 0.1 µM at nsp5 [1] (FRET-based assay, Reducing agent: None, read-out: IC50). In addition, at nsp5 [1] (FRET-based assay), the “inhibition of nsp5 in presence of reducing agent” value is recorded as “inhibited nsp5 in the absence of reducing agent as well as the presence of either reducing agent”. The “inhibition of nsp5 in absence of reducing agent” value at nsp5 [1] (FRET-based assay) is reported as “inhibited nsp5 in the absence of reducing agent”. Besides, the “Hill coefficient (nH)” value at nsp5 [1] (FRET-based assay, mean ± SEM) is reported as -2.0 ± 0.1. For the same molecule, the “inhibition of nsp5 … (words)” value against nsp5 [2] is given as “inhibited nsp5”. Besides, the EC50 in the data set on SARS-CoV-2 (setting [4]) stood at 0.28 ± 0.01 µM. Moreover, the “toxic effects in mice” value in the data set on mice is recorded as “without obvious toxic effects”.

In turn, `COC(=O)CCC(NC(=O)C(CC(=O)OC)NC(=O)OCc1ccccc1)C(=O)NC(C(=O)NC(CC(=O)OC)C(=O)CF)C(C)C` (stereo not shown) [Z-DEVD-FMK] displayed an IC50 against nsp5 [1] of 0.23 ± 0.03 µM. Further, the “Hill coefficient (nH)” value at nsp5 [1] (FRET-based assay, mean ± SEM) is listed as -0.7 ± 0.05. For the same molecule, the “inhibition of nsp5 … (words)” value at nsp5 [2] was “inhibited nsp5”.

On to `O=C1O/C(=C/Br)CCC1c1cccc2ccccc12` (stereo not shown) [Bromoenol lactone], for which the IC50 against nsp5 [1] was 3.4 µM; on thrombin (HTS buffer, thrombin FRET substrate, mean ± SEM, read-out: Inhibition of thrombin: IC50), 0.4 ± 0.6 µM. On nsp5 [1] (FRET-based assay, mean ± SEM), the “Hill coefficient (nH)” value is given as -2.6 ± 0.15. The “inhibition of nsp5 … (words)” value against nsp5 [2] is “inhibited nsp5”. Also, the “Inhibition of thrombin: nH” value at thrombin (HTS buffer, thrombin FRET substrate, mean ± SEM) was -2.8 ± 0.8. Moreover, the “inhibition of thrombin activity (words)” value against thrombin is “I nhibited thrombin”; against thrombin (listed as bromoenol lactone), “inhibited thrombin activity”.

With Q-IETD-OPh, the “inhibition of nsp5 … (words)” value against nsp5 [2] is given as “showed the best nsp5 inhibition”.

Turning to `COC(=O)CC(NC(=O)C(CC(C)C)NC(=O)C(NC(=O)C(C)NC(=O)C(CO)NC(=O)C(C)NC(=O)OCc1ccccc1)C(C)C)C(=O)CF` (stereo not shown) [Z-ASAVLD-FMK] (Cbz-ASAVLD(OMe)-CH2F; configuration not given here), the IC50 on nsp5 [1] (setting [3]) was 0.26 ± 0.02 µM.

On to Q-DEVD-OPh, for which, at nsp5 [2], the “inhibition of nsp5 … (words)” value is given as “only displayed inhibition at the highest concentration of drug tested”.

In the case of `CCNC(=O)[C@H]1O[C@@H](n2cnc3c(N)ncnc32)[C@H](O)[C@@H]1O` [5'-N-Ethulcarbomaxidoadenosine], on nsp5 [1], the “inhibition of nsp5 in FRET-based assay” value is “Did not inhibit”.

Take `CC(C)[C@H](NC(=O)c1ccc2ccccc2n1)C(=O)N[C@@H](CC(=O)O)C(=O)COc1c(F)cccc1F` [Q-VD-OPh]: the “inhibition of nsp5 … (words)” value against nsp5 [2] is listed as “did not inhibit nsp5 activity”. Also, the “toxic side effects in rhesus macaques” value in the data set on rhesus macaques is “no toxic side effects”.
